Laboratory results as given in PMC6149922, “2-Substituted Aniline as a Simple Scaffold for LuxR-Regulated QS Modulation” (Molecules : A Journal of Synthetic Chemistry and Natural …, 2017).

Biological target: T1, LuxR (Aliivibrio fischeri, UniProt P12746)
T1 sequence (P12746 1-250): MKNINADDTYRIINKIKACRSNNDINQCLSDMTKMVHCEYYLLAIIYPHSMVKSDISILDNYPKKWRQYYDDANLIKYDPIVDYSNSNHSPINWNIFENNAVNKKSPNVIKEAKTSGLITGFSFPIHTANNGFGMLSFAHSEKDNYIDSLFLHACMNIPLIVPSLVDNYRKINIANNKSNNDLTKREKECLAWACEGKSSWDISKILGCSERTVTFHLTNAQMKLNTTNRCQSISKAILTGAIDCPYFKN
Assay: antagonism of […] 3-oxo-C6-HSL-induced bioluminescence, recombinant E. coli NM522 pSB401 LuxR biosensor
Assay type: cell-based

Row | SMILES | IC50
1 | CCCC(=O)Nc1ccccc1[N+](=O)[O-] [compound 1, N-(2-nitrophenyl)butanamide] | 58 µM
2 | CCCCCC(=O)Nc1ccccc1 [compound 12, N-Phenylhexanamide] | 79 µM
3 | CCCCCC(=O)Nc1ccccc1[N+](=O)[O-] [compound 2, N-(2-nitrophenyl)hexanamide] | 94 µM
